Results taken from PMC7048748, “Anxiolytic Drug FGIN-1-27 Ameliorates Autoimmunity by Metabolic Reprogramming of Pathogenic Th17 Cells” (Scientific Reports, 2020).

How the values were obtained:
Th17 cells = test: Transcript levels by qPCR in Th17 cells; format: cell-based, mouse
Description: Figure 1 FGIN-1-27 Inhibits Th17 Differentiation. Naïve CD4 T cells from spleens and lymph nodes of C57BL/6 mice were differentiated under Th17 polarization conditions and were treated with DMSO (control) or FGIN-1-27. (a) Dose response plot showing effect of FGIN-1-27 on intracellular IL-17 and viability on day 4 post activation quantified by flow cytometry. Data is normalized against DMSO (100%). […] (b) Dot plots showing DMSO or FGIN-1-27 treated cells stained for surface CD4, CD44, intracellular IL-17 and intranuclear RORγt. (c) Transcript levels for the indicated genes after 24 hours of treatment with DMSO or FGIN-1-27 quantified by qPCR. Data was normalized to a housekeeping gene, β-actin. Data are representative of at least 3 independent experiments and the error bars indicate standard deviation.
Figure 5 FGIN-1-27 induces amino acid starvation response (AAR). (a) MA-plot showing shrunken log2 fold-changes of detected genes between the DMSO and FGIN-1-27 RNA-seq samples, ranked by average normalized count. Red dots indicate differentially expressed genes at adjusted p-value <0.05. (b) Transcript levels for the indicated genes after 24 hours of treatment with DMSO or FGIN-1-27 quantified by qPCR. The error bars represent SD. (c) Western blot analysis for phosphorylated eIF2α and ATF4 24 hours after treatment with DMSO or FGIN-1-27 (5 and 10 µM). Data are representative of 3 independent experiments. (d) Amino acids in Th17 cells measured 72 hours after treatment with FGIN-1-27. The error bars represent SD. (e) ROS was measured using cell permeant reagent 2′,7′ –dichlorofluorescin diacetate (DCFDA) at 24 hours following treatment with FGIN-1-27. Filled grey histogram-DMSO, dotted line-FGIN-1-27 (10 µM) and dashed line indicates FGIN-1-27 (5 µM). […]
Total RNA extractions were performed with the RNAeasy kit (Qiagen) followed by cDNA synthesis using High capacity cDNA Reverse Transcription kit (Applied Biosystems). Quantitative PCR was performed on a ViiA 7 (Applied Biosystems) using SYBR Fast qPCR master mix (Kapa Biosystems). […]

ATF4 = test: Western blot for ATF4; format: cell-based, mouse; conditions: 24 hours, compared to DMSO controls
Description: (a) MA-plot showing shrunken log2 fold-changes of detected genes between the DMSO and FGIN-1-27 RNA-seq samples, ranked by average normalized count. Red dots indicate differentially expressed genes at adjusted p-value <0.05. (b) Transcript levels for the indicated genes after 24 hours of treatment with DMSO or FGIN-1-27 quantified by qPCR. The error bars represent SD. (c) Western blot analysis for phosphorylated eIF2α and ATF4 24 hours after treatment with DMSO or FGIN-1-27 (5 and 10 µM). Data are representative of 3 independent experiments. (d) Amino acids in Th17 cells measured 72 hours after treatment with FGIN-1-27. The error bars represent SD. (e) ROS was measured using cell permeant reagent 2′,7′ –dichlorofluorescin diacetate (DCFDA) at 24 hours following treatment with FGIN-1-27. Filled grey histogram-DMSO, dotted line-FGIN-1-27 (10 µM) and dashed line indicates FGIN-1-27 (5 µM). […] Data are normalized using DMSO treated cells as 100% and the error bars represent SD.
Cell lysates were prepared by lysis in RIPA buffer containing protease and phosphatase inhibitors and immunoblotting was performed by standard methods.
(a) W estern blot analysis for phosphorylated eIF2α and ATF4 24 hours after treatment
with DMSO or FGIN-1-27 (5 and 10 µM). […]
(a) Indicated sterols were measured in Th17 cells treated with DMSO or FGIN-1-27 for […]

CCCCCCN(CCCCCC)C(=O)Cc1c(-c2ccc(F)cc2)[nH]c2ccccc12 [FGIN-1-27, N, N-di-n-hexyl 2-(4-fluorophenyl) indole-3-acetamide]
ATF4 target genes Asns and Gpt2 (Th17 cells; 24 hours): induced | expression of RORγt target genes (Il17a, Il17f, Il23r, Ltb4r1, Ccr6) and Stat3 (Th17 cells; 24 hours of treatment, p < 0.0001): significantly downregulated | CD5L transcript (Th17 cells; 72 hours post treatment): substantial up-regulation | increase in ATF4 translation (ATF4): 2.8 fold
